# Test results from PMC6277767, “Broad and Region-Specific Impacts of the Synthetic Cannabinoid CP 55,940 in Adolescent and Adult Female Mouse Brains” (Frontiers in Molecular Neuroscience, 2018).
# Test system: CD1 female mouse brain lipidome
# Test: Brain-region lipid levels (HPLC/MS/MS lipidomics) 2 h after single i.p. 3 mg/kg CP 55,940 vs vehicle
# Format: in vivo
# Procedure: The Bloomington Institutional Animal Care and Use Committee of Indiana University reviewed and approved the animal procedures. Female mice from the CD1 strain were utilized to match our study examining THC’s effects on the brain lipidome ([Leishman et al., 2018]). Mice were given a single i.p. injection of either 3 mg/kg CP or 1:1:18 cremophor:ethanol:saline vehicle (please refer to the section “3 mg/kg CP Is Relevant for Synthetic Cannabinoid Abuse and Has Stronger Effects on the Female Mouse Brain Lipidome During Adolescence” for a justification of dose and use of female mice). Three different age groups were given injections: PND 35 and PND 50 adolescents, and adult mice (PND 113). At least eight mice in each age group received CP and at least eight received vehicle. Matching the THC study time course ([Leishman et al., 2018]), mice were sacrificed via rapid decapitation 2 h after injection. Brains were immediately removed and flash-frozen in liquid nitrogen, and then stored at -80°C until dissections were performed. Brains were dissected on an ice-cold dissection plate into the following regions: STR, HIPP, CER, THAL, CTX, HYP, MID, and STEM. These abbreviations for these brain areas will be used exclusively when discussing the results generated by these specific dissections. Each dissected area was immediately placed in liquid nitrogen and then stored at -80°C until used for lipid extraction.
# Tissue extracts were performed as previously described ([Bradshaw et al., 2006]; [Stuart et al., 2013]; [Raboune et al., 2014]; [Leishman et al., 2016a],[b], [2017], [2018]). First, samples were shock frozen in liquid nitrogen, weighed, and transferred to a centrifuge tube. The mass of the largest sample was multiplied by 50 to determine how many milliliters of HPLC-grade methanol (Fisher, Fair Lawn, NJ, United States) to add. Then, samples were spiked with 500 pmol deuterium-labeled NAGly (d8NAGly; Cayman Chemical, Ann Arbor, MI, United States). Samples were placed on ice in darkness for 2 h then individually homogenized and centrifuged at 19,000 × g for 20 min at 20°C. Supernatants were diluted with HPLC water (purified in house) to make a solution of 75% water, 25% supernatant. Lipids were partially purified on C18 solid phase extraction columns (Agilent, Palo Alto, CA, United States). A series of four elutions with 1.5 mL of 60%, 75%, 85%, and 100% methanol were collected ([Stuart et al., 2013]; [Leishman et al., 2016a],[b], [2018]).
# As previously described ([Bradshaw et al., 2006]; [Tan et al., 2006]; [Smoum et al., 2010]; [Stuart et al., 2013]; [Tortoriello et al., 2013]; [Raboune et al., 2014]; [Leishman et al., 2016a],[b], [2017], [2018]), samples were analyzed using an Applied Biosystems API 3000 triple quadrupole mass spectrometer with electrospray ionization (Foster City, CA, United States). Using an Agilent XDB-C18 reversed phase analytical column and optimized mobile phase gradients, 20 μL from each elution were chromatographed. Two Shimadzu 10ADvp pumps (Columbia, MD, United States) provided the pressure for gradient elution. Mobile phase A: 20% methanol, 80% water (v/v) and 1 mM ammonium acetate (Sigma, St. Louis, MO, United States). Mobile phase B: 100% methanol, 1 mM ammonium acetate. Every method run began with 0% mobile phase B, reached 100% mobile phase B flowing at 0.2 mL/min, and gradually returned to 0% mobile phase B.
# This screening library will be referred to as the lipidome when discussing data from this study. HPLC/MS/MS data were analyzed using Analyst software (Applied Biosystems) ([Bradshaw et al., 2006]; [Tan et al., 2006]; [Stuart et al., 2013]; [Tortoriello et al., 2013]; [Raboune et al., 2014]; [Leishman et al., 2016a],[b], [2017], [2018]). Chromatograms (Supplementary Figure 3) were generated by determining the retention time of analytes from the analytical column with a [M-1] or [M+1] parent peak and a fragmentation peak corresponding to the programmed values. […]
smiles,measurement,setting,value
"CCCCCCC(C)(C)c1ccc([C@@H]2C[C@H](O)CC[C@H]2CCCO)c(O)c1 [CP 55,940]",PGF2α level vs vehicle,PND 35 STR,↑ (1-1.49 times higher than vehicle)
same,2-linoleoyl glycerol level vs vehicle,PND 35 THAL,↓ (1-1.49 times lower than vehicle)
same,6-ketoPGF1α level vs vehicle,PND 35 THAL,↓ (1-1.49 times lower than vehicle)
same,N- stearoyl valine level vs vehicle,PND 35 THAL,↑ (1-1.49 times higher than vehicle)
same,N-arachidonoyl GABA level vs vehicle,PND 35 THAL,↓ (1-1.49 times lower than vehicle)
same,N-arachidonoyl alanine level vs vehicle,PND 35 THAL,↓ (1-1.49 times lower than vehicle)
same,N-arachidonoyl ethanolamine level vs vehicle,PND 35 THAL,↑ (1-1.49 times higher than vehicle)
same,N-arachidonoyl glycine level vs vehicle,PND 35 THAL,↓ (1-1.49 times lower than vehicle)
same,N-arachidonoyl phenylalanine level vs vehicle,PND 35 THAL,↑ (1-1.49 times higher than vehicle)
same,N-arachidonoyl serine level vs vehicle,PND 35 THAL,↓ (1-1.49 times lower than vehicle)
same,N-arachidonoyl taurine level vs vehicle,PND 35 THAL,↓ (1-1.49 times lower than vehicle)
same,N-docosahexaenoyl GABA level vs vehicle,PND 35 THAL,↓ (1-1.49 times lower than vehicle)
same,N-docosahexaenoyl alanine level vs vehicle,PND 35 THAL,↓ (1-1.49 times lower than vehicle)
same,N-docosahexaenoyl glycine level vs vehicle,PND 35 THAL,↓ (1-1.49 times lower than vehicle)
same,N-docosahexaenoyl leucine level vs vehicle,PND 35 THAL,↑↑ (1.50-1.99 times higher than vehicle)
same,N-docosahexaenoyl phenylalanine level vs vehicle,PND 35 THAL,↑ (1-1.49 times higher than vehicle)
same,N-linoleoyl ethanolamine level vs vehicle,PND 35 THAL,↑ (1-1.49 times higher than vehicle)
same,N-oleoyl GABA level vs vehicle,PND 35 THAL,↓ (1-1.49 times lower than vehicle)
same,N-oleoyl alanine level vs vehicle,PND 35 THAL,↓ (1-1.49 times lower than vehicle)
same,N-oleoyl glycine level vs vehicle,PND 35 THAL,↓ (1-1.49 times lower than vehicle)
same,N-oleoyl leucine level vs vehicle,PND 35 THAL,↑ (1-1.49 times higher than vehicle)
same,N-oleoyl valine level vs vehicle,PND 35 THAL,↑ (1-1.49 times higher than vehicle)
same,N-palmitoyl GABA level vs vehicle,PND 35 THAL,↑ (1-1.49 times higher than vehicle)
same,N-palmitoyl leucine level vs vehicle,PND 35 THAL,↑ (1-1.49 times higher than vehicle)
same,N-palmitoyl phenylalanine level vs vehicle,PND 35 THAL,↑ (1-1.49 times higher than vehicle)
same,N-palmitoyl tyrosine level vs vehicle,PND 35 THAL,↑ (1-1.49 times higher than vehicle)
same,N-palmitoyl valine level vs vehicle,PND 35 THAL,↑↑ (1.50-1.99 times higher than vehicle)
same,N-stearoyl serine level vs vehicle,PND 35 THAL,↓ (1-1.49 times lower than vehicle)
same,N-stearoyl tyrosine level vs vehicle,PND 35 THAL,↓ (1-1.49 times lower than vehicle)
same,PGE2 level vs vehicle,PND 35 THAL,↑ (1-1.49 times higher than vehicle)
same,phosphoLEA level vs vehicle,PND 35 THAL,↑ (1-1.49 times higher than vehicle)
same,changes in NAEs,PND 35 brain,17
same,changes in PG levels,PND 35 brain,15
same,changes in lipoamines derived from AA,PND 35 brain,50
same,decreases in 2-acyl glycerol levels,PND 35 brain,15
same,decreases in PG levels,PND 35 brain,5
same,decreases in free fatty acid levels,PND 35 brain,Eight
same,increases in PG levels,PND 35 brain,10
same,percentage of detected lipids modified with acute CP,"PND 35 brain, 529 detected",43.67%
same,"2-arachidonoyl glycerol, Direction (relative to Veh)",PND 35 hypothalamus,↓
same,"2-arachidonoyl glycerol, Magnitude (x Veh level)",PND 35 hypothalamus,0.39 x Veh level
same,2-linoleoyl glycerol Direction (relative to Veh),PND 35 hypothalamus,↓
same,2-linoleoyl glycerol Magnitude (x Veh level),PND 35 hypothalamus,0.63 x Veh level
same,"2-oleoyl glycerol, Direction (relative to Veh)",PND 35 hypothalamus,↓
same,"2-oleoyl glycerol, Magnitude (x Veh level)",PND 35 hypothalamus,0.55 x Veh level
same,"2-palmitoyl glycerol, Direction (relative to Veh)",PND 35 hypothalamus,↑
same,"2-palmitoyl glycerol, Magnitude (x Veh level)",PND 35 hypothalamus,1.29 x Veh level
same,"Arachidonic acid, Direction (relative to Veh)",PND 35 hypothalamus,↓
same,"Arachidonic acid, Magnitude (x Veh level)",PND 35 hypothalamus,0.85 x Veh level
same,"Linoleic acid, Direction (relative to Veh)",PND 35 hypothalamus,↓
same,"Linoleic acid, Magnitude (x Veh level)",PND 35 hypothalamus,0.75 x Veh level
same,N-arachidonoyl GABA Direction (relative to Veh),PND 35 hypothalamus,↓
same,N-arachidonoyl GABA Magnitude (x Veh level),PND 35 hypothalamus,0.74 x Veh level
same,N-arachidonoyl alanine Magnitude (x Veh level),PND 35 hypothalamus,0.55 x Veh level
same,"N-arachidonoyl alanine, Direction (relative to Veh)",PND 35 hypothalamus,↓
same,"N-arachidonoyl ethanolamine, Direction (relative to Veh)",PND 35 hypothalamus,↓
same,"N-arachidonoyl ethanolamine, Magnitude (x Veh level)",PND 35 hypothalamus,0.76 x Veh level
same,N-arachidonoyl glycine Direction (relative to Veh),PND 35 hypothalamus,↓
same,N-arachidonoyl glycine Magnitude (x Veh level),PND 35 hypothalamus,0.70 x Veh level
same,"N-arachidonoyl phenylalanine, Direction (relative to Veh)",PND 35 hypothalamus,↓
same,"N-arachidonoyl phenylalanine, Magnitude (x Veh level)",PND 35 hypothalamus,0.86 x Veh level
same,N-arachidonoyl taurine Direction (relative to Veh),PND 35 hypothalamus,↓
same,N-arachidonoyl taurine Magnitude (x Veh level),PND 35 hypothalamus,0.70 x Veh level
same,N-docosahexaenoyl GABA Direction (relative to Veh),PND 35 hypothalamus,↓
same,N-docosahexaenoyl GABA Magnitude (x Veh level),PND 35 hypothalamus,0.68 x Veh level
same,"N-docosahexaenoyl ethanolamine, Direction (relative to Veh)",PND 35 hypothalamus,↓
same,"N-docosahexaenoyl ethanolamine, Magnitude (x Veh level)",PND 35 hypothalamus,0.59 x Veh level
same,N-linoleoyl alanine direction (relative to Veh),PND 35 hypothalamus,↓
same,N-linoleoyl alanine magnitude (x Veh level),PND 35 hypothalamus,0.77 x Veh level
same,N-oleoyl GABA Magnitude (x Veh level),PND 35 hypothalamus,0.87 x Veh level
same,N-oleoyl GABA direction (relative to Veh),PND 35 hypothalamus,↓
same,N-oleoyl alanine Magnitude (x Veh level),PND 35 hypothalamus,0.84 x Veh level
same,N-oleoyl alanine direction (relative to Veh),PND 35 hypothalamus,↓
same,"N-oleoyl ethanolamine, Direction (relative to Veh)",PND 35 hypothalamus,↓
same,"N-oleoyl ethanolamine, Magnitude (x Veh level)",PND 35 hypothalamus,0.65 x Veh level
same,"N-palmitoyl ethanolamine, Direction (relative to Veh)",PND 35 hypothalamus,↓
same,"N-palmitoyl ethanolamine, Magnitude (x Veh level)",PND 35 hypothalamus,0.66 x Veh level
same,"N-palmitoyl leucine, Direction (relative to Veh)",PND 35 hypothalamus,↑
same,"N-palmitoyl leucine, Magnitude (x Veh level)",PND 35 hypothalamus,1.30 x Veh level
same,N-stearoyl ethanolamine direction (relative to Veh),PND 35 hypothalamus,↓
same,N-stearoyl ethanolamine magnitude (x Veh level),PND 35 hypothalamus,0.73 x Veh level
same,"Oleic acid, Direction (relative to Veh)",PND 35 hypothalamus,↓
same,"Oleic acid, Magnitude (x Veh level)",PND 35 hypothalamus,0.72 x Veh level
same,PGE2 Direction (relative to Veh),PND 35 hypothalamus,↓
same,PGE2 Magnitude (x Veh level),PND 35 hypothalamus,0.78 x Veh level
same,PGF2α Direction (relative to Veh),PND 35 hypothalamus,↑
same,PGF2α Magnitude (x Veh level),PND 35 hypothalamus,1.27 x Veh level
same,phoshoLEA direction (relative to Veh),PND 35 hypothalamus,↑
same,phoshoLEA magnitude (x Veh level),PND 35 hypothalamus,1.47 x Veh level
same,2-linoleoyl glycerol: Magnitude (x Veh level),"PND 35 midbrain, 3mg/kg",0.76 x Veh level
same,6-ketoPGF1α: Magnitude (x Veh level),"PND 35 midbrain, 3mg/kg",0.86 x Veh level
same,Arachidonic acid: Magnitude (x Veh level),"PND 35 midbrain, 3mg/kg",0.88 x Veh level
same,N-arachidonoyl GABA: Magnitude (x Veh level),"PND 35 midbrain, 3mg/kg",0.69 x Veh level
same,N-arachidonoyl alanine: Magnitude (x Veh level),"PND 35 midbrain, 3mg/kg",0.79 x Veh level
same,N-arachidonoyl glycine: Magnitude (x Veh level),"PND 35 midbrain, 3mg/kg",0.89 x Veh level
same,N-arachidonoyl serine: Magnitude (x Veh level),"PND 35 midbrain, 3mg/kg",0.82 x Veh level
same,N-arachidonoyl taurine: Magnitude (x Veh level),"PND 35 midbrain, 3mg/kg",0.87 x Veh level
same,N-arachidonoyl tyrosine: Magnitude (x Veh level),"PND 35 midbrain, 3mg/kg",0.81 x Veh level
same,N-docosahexaenoyl GABA: Magnitude (x Veh level),"PND 35 midbrain, 3mg/kg",0.72 x Veh level
same,N-docosahexaenoyl alanine: Magnitude (x Veh level),"PND 35 midbrain, 3mg/kg",0.82 x Veh level
same,N-docosahexaenoyl glycine: Magnitude (x Veh level),"PND 35 midbrain, 3mg/kg",0.88 x Veh level
same,N-docosahexaenoyl leucine: Magnitude (x Veh level),"PND 35 midbrain, 3mg/kg",1.40 x Veh level
